This note sets out measurements from the kinase profiling compilation of Christmann-Franck et al. (2016).

What all share (settings): compound 10.0 µM
Assay [1] concerns the target RPS6KB1 (human) (UniProt P23443).
Assay [2] has as its target CAMK2A or CAMK2B or CAMK2D or CAMK2G (human) (UniProt Q13555+Q13557+Q9UQM7+Q13554).
Assay [3] addresses INSR (human) (UniProt P06213).
Assay [4] deals with PAK2 (human) (UniProt Q13177).
Assay [5] concerns the target PIM2 (human) (UniProt Q9P1W9).
Assay [6] deals with CHEK1 (human) (UniProt O14757).
The target in assay [7] is CAMK4 (human) (UniProt Q16566).
In assay [8] the target is MAP3K7 (human) (UniProt O43318).
Assay [9] addresses IGF1R (human) (UniProt P08069).
Assay [10] concerns the target DYRK1A (human) (UniProt Q13627).
Assay [11] addresses MARK1 (human) (UniProt Q9P0L2).
Assay [12] has as its target MAP4K4 (human) (UniProt O95819).
The target in assay [13] is KDR (human) (UniProt P35968).
Assay [14] deals with AKT1 (human) (UniProt P31749).
Assay [15] deals with ABL1 (human) (UniProt P00519).
Assay [16] deals with SGK1 (human) (UniProt O00141).
Assay [17] concerns the target MET (human) (UniProt P08581).
Assay [18] has as its target PRKG1 (human) (UniProt Q13976).
Assay [19] concerns the target FGFR1 (human) (UniProt P11362).
Assay [20] has as its target MAPKAPK5 (human) (UniProt Q8IW41).

CAMK2A or CAMK2B or CAMK2D or CAMK2G (human), sequence (Q13554 whole entry, looked up): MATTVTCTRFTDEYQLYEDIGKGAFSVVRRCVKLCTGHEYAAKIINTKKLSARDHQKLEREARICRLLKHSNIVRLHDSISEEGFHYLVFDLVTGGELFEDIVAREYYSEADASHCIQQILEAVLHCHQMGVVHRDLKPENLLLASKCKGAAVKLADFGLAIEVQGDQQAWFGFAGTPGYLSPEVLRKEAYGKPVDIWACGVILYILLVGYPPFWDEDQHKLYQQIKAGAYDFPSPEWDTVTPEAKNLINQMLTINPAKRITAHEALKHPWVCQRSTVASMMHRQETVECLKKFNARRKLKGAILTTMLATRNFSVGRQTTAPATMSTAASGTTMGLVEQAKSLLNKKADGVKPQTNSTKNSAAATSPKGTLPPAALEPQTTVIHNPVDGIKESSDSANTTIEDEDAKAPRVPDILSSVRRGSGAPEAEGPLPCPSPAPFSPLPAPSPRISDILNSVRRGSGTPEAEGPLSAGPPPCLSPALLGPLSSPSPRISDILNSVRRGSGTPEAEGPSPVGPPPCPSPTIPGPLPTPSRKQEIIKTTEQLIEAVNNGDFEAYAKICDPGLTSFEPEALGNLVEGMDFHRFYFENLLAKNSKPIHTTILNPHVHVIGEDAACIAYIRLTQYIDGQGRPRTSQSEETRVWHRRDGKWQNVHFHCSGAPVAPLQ
CAMK2A or CAMK2B or CAMK2D or CAMK2G (human), sequence (Q13555 whole entry, looked up): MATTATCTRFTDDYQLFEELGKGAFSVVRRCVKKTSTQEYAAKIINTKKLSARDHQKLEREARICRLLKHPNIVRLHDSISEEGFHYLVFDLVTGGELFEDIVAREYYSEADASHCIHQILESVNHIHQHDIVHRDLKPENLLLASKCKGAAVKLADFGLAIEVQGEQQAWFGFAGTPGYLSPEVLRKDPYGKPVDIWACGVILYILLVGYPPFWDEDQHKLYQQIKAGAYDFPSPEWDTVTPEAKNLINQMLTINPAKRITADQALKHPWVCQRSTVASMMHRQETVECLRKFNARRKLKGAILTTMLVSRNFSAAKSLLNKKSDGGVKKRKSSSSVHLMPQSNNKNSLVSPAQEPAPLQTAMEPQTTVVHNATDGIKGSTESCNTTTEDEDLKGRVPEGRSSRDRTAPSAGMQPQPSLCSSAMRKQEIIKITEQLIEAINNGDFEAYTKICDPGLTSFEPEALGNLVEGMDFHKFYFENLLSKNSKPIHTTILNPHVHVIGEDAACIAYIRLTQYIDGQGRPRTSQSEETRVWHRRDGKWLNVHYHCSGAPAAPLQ
CAMK2A or CAMK2B or CAMK2D or CAMK2G (human), sequence (Q13557 whole entry, looked up): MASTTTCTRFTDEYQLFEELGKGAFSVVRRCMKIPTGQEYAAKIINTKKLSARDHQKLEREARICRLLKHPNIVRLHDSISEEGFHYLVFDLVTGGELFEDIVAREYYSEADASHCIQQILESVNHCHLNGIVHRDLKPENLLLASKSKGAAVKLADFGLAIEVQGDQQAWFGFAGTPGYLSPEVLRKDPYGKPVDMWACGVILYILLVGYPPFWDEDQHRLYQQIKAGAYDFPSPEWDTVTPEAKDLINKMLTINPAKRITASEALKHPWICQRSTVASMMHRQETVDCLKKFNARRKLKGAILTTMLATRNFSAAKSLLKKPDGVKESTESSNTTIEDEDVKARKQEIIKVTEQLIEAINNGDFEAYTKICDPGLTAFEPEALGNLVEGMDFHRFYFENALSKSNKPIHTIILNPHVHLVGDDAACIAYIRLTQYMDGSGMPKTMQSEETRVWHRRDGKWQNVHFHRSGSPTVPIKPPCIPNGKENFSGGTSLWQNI
CAMK2A or CAMK2B or CAMK2D or CAMK2G (human), sequence (Q9UQM7 whole entry, looked up): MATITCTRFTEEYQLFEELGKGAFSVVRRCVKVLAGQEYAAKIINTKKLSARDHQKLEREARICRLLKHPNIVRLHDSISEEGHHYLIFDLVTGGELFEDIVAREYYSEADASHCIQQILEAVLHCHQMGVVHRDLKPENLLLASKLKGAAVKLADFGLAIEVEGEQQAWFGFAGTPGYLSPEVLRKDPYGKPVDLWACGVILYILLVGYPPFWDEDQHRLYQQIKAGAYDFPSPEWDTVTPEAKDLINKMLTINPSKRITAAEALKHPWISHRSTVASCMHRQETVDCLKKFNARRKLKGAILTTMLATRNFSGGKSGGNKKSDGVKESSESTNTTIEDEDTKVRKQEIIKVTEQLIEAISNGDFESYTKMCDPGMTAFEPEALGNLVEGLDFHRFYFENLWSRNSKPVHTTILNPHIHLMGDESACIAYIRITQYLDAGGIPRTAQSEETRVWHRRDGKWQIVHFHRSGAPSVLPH
RPS6KB1 (human), sequence (P23443 whole entry, looked up): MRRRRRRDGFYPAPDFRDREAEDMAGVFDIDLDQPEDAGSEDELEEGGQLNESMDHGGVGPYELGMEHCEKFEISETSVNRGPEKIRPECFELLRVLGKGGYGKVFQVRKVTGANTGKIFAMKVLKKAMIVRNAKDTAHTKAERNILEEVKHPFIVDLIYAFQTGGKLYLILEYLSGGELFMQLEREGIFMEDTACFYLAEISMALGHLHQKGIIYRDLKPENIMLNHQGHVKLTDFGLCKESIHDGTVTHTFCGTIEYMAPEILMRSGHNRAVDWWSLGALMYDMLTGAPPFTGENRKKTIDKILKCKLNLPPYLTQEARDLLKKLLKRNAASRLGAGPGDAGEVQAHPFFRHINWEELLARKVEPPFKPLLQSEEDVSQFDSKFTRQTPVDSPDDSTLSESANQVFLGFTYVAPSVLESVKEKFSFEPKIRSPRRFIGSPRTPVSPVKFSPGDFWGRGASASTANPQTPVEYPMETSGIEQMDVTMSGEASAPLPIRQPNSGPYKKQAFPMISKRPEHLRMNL
IGF1R (human), sequence (P08069 whole entry, looked up): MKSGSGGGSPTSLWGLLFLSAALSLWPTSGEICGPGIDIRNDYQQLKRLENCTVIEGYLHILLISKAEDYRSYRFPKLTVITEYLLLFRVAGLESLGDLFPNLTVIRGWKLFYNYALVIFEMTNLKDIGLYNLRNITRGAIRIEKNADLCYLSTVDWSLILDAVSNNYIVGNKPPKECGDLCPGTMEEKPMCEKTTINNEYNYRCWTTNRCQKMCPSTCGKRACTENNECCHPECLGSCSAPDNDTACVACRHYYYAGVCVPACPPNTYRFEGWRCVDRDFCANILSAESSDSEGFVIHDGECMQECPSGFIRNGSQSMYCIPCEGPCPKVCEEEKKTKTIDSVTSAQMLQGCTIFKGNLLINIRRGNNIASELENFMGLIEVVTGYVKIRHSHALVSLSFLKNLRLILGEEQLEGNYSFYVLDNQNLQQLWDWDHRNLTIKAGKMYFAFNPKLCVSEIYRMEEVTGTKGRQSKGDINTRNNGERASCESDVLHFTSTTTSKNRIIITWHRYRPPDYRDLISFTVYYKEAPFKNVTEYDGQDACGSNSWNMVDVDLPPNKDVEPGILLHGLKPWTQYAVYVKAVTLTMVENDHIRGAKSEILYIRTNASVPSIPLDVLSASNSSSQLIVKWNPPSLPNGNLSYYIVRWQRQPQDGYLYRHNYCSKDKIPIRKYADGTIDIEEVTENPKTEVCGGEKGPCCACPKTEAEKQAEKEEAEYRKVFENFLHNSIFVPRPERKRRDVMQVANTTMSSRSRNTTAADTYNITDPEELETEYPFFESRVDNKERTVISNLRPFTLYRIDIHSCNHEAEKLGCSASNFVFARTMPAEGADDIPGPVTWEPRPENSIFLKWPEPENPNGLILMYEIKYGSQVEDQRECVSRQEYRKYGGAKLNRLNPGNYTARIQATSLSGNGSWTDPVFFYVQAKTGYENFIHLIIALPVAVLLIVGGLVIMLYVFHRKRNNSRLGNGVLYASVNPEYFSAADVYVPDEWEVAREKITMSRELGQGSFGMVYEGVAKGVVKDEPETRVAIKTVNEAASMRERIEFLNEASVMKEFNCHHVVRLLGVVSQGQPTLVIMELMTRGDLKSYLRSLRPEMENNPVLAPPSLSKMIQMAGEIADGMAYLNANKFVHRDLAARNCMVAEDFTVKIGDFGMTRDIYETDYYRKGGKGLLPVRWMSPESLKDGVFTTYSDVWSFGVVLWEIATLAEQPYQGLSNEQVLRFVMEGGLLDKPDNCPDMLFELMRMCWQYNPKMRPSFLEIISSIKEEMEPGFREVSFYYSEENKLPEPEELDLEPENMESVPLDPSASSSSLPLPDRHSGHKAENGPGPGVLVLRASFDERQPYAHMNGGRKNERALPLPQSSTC
CAMK4 (human), sequence (Q16566 whole entry, looked up): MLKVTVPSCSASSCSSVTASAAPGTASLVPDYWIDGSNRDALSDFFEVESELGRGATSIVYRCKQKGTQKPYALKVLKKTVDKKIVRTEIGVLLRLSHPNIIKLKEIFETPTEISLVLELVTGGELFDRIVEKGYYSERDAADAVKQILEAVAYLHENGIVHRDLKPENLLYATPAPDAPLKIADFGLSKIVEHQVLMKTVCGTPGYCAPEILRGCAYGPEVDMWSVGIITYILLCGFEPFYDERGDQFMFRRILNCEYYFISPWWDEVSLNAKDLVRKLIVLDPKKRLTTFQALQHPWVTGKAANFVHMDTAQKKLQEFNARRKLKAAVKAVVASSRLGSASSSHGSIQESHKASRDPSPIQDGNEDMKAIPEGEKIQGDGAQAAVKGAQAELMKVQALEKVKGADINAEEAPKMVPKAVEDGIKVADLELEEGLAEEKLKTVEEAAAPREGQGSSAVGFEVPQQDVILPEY
PIM2 (human), sequence (Q9P1W9 whole entry, looked up): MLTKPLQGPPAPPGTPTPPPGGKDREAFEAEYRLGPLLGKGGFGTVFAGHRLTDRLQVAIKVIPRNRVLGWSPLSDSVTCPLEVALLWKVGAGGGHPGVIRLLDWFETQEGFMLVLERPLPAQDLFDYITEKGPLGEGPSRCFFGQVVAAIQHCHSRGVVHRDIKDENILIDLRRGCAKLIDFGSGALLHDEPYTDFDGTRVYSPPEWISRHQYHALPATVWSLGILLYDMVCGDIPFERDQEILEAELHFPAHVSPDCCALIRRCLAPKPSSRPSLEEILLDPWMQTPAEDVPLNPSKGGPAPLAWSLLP

For the compound `CC[C@@H](NC(=O)c1c[nH]c2ncc(-c3nn(C)c4cc(Cl)ccc34)nc12)C(=O)N1CC(C#N)C1`, the inhibition in [1] was -12%; in assay [2] it was -35%; in [3], -11%; in assay [4] it was -29%.

For `C[C@@H](NC(=O)c1c[nH]c2ncc(-c3cn(C)c4cc(Cl)ccc34)nc12)C(=O)N1CC(C#N)C1`, the inhibition was -14% in [1], -53% in assay [2] and -18% in assay [5].

Turning to `C[C@@H](NC(=O)c1c[nH]c2ncc(-c3nn(C)c4cc(Cl)cc(F)c34)nc12)C(=O)N1CC(C#N)C1`, the inhibition was -33% in assay [1]; -28% in assay [6]; -24% in assay [7]; -52% in [2]; -11% in assay [8]; -30% in assay [9].

Turning to `C[C@@H](NC(=O)c1c[nH]c2ncc(-c3nn(C)c4cc(Cl)ccc34)nc12)C(=O)N1CC(C#N)C1`, the inhibition in assay [10] is -13%; in [1] it was -12%; in assay [11], -11%; in assay [12], -17%; in assay [13], -18%; in assay [14], -11%. Moreover, the inhibition in assay [7] is -11%; in assay [2], -179%; in assay [15] it was -13%; in assay [16] it was -17%; in assay [17], -15%; in assay [18], 0%. Moreover, the inhibition was -24% in assay [8], -12% in [9], -15% in [5] and -11% in [19].

As for `C[C@@H](NC(=O)c1c[nH]c2ncc(-c3ncn4cc(F)cc(F)c34)nc12)C(=O)N1CC(C#N)C1`, the inhibition is -42% in assay [1], -12% in [20], -51% in assay [2] and 0% in assay [18].
